Results taken from PMC12088000, “Design, synthesis and in silico molecular modelling studies of 2-Hydrazineyl-2-oxoethyl-4-(1H-pyrrol-1-yb) benzoate derivatives: a potent dual DHFR and ENR-reductase inhibitors with antitubercular, antibacterial and cytotoxic potential” (PLOS One, 2025).
≈ marks a conversion by molar mass, not a printed value.

What was measured:
M. tuberculosis H37Rv = assay: Antitubercular activity, Microplate Alamar Blue test (MABA); format: cell-based, Mycobacterium tuberculosis; settings: n = 3; for MIC: Mycobacterium tuberculosis, H37RV
[1] = molecular target: InhA enzyme from M. tuberculosis (Mycobacterium tuberculosis, UniProt P9WGR1); assay: InhA inhibition assay; format: biochemical; settings: read-out: % InhA Inhibition at 50 µM
MtDHFR = MtDHFR (Mycobacterium tuberculosis, UniProt P9WNX1); assay: biochemical; format: biochemical
[2] = test system: human lung cancer cell line A549; assay: MTT-based cytotoxicity; format: cell-based; settings: Homo sapiens, A549; MTT assay
Description: The cytotoxic effects of seventeen selected molecules were assessed against the A549 human lung adenocarcinoma cell line using the MTT assay. Cisplatin served as the reference drug for comparison. Lower IC50 values indicate higher cytotoxicity.
The cytotoxic activity (IC50) of selected compounds against A549 (lung adenocarcinoma) MV cell-lines was evaluated by performing cellular conversion of MTT [3-(4,5-dimethylthiazo-2-yl)-2,5-diphenyl-tetrazolium bromide] into a formazan product. This evaluation was conducted up to a concentration of 50 mg/mL using the Promega Cell Titre 96 non-radioactive cell proliferation assay, with cisplatin serving as the positive control. Cytotoxicity is commonly quantified by determining the IC50 value, which represents the quantity of a substance that reduces the optical density of treated cells by 50% compared to untreated cells, as measured by the MTT experiment. The results are presented as IC50 values (mean ± standard error of the mean (SEM) obtained from three separate and independent measurements.

E. coli ATCC 25922 = assay: Antibacterial activity, broth microdilution (E. coli); settings: for MIC: Escherichia coli, ATCC25922, read-out: E. coli ATCC 25922 (Gram –ve) MIC, broth microdilution
Description: (§1) All twenty-eight molecules were evaluated for in vitro antimicrobial activities that were assessed against Gram +ve and Gram -ve strains.
(§2) The antibacterial inhibitory effects of all compounds were assessed using the broth microdilution method, with ciprofloxacin serving as the reference medication.

S. aureus ATCC 29213 = assay: Antibacterial activity, broth microdilution (S. aureus); settings: Staphylococcus aureus, ATCC29213, read-out: S. aureus ATCC 29213 (Gram +ve) MIC
Description: as §1, §2

Chain of InhA enzyme from M. tuberculosis (P9WGR1 whole entry, looked up): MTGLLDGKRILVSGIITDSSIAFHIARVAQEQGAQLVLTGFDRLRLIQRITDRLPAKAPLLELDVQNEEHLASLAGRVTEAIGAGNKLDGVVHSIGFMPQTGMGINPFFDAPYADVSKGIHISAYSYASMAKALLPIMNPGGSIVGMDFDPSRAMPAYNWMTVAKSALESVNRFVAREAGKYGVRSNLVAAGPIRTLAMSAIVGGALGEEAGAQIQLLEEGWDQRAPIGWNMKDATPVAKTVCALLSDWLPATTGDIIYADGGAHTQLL
Chain of MtDHFR (P9WNX1 whole entry): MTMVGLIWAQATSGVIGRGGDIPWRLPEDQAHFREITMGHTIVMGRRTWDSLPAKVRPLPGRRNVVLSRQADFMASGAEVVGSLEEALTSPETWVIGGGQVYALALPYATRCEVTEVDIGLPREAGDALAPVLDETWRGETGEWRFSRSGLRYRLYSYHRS

Compound	MIC (M. tuberculosis H37Rv) [µg/mL]	inhibition at 50 µM [1] [%]	IC50 (MtDHFR) [µM]	IC50 [2] [µg/mL]	MIC (E. coli ATCC 25922) [µg/mL]	MIC (S. aureus ATCC 29213) [µg/mL]	MtDHFR inhibition, in words, compared with trimethoprim (MtDHFR)	M. tuberculosis H37Rv MIC values (M. tuberculosis H37Rv) [µg/mL]	E. coli ATCC 25922 (Gram –ve) MIC (E. coli ATCC 25922; broth microdilution) [µg/mL]
CC(=NNC(=O)COC(=O)c1ccc(-n2cccc2)cc1)c1cccc([N+](=O)[O-])c1 [Compound 5g, 2-(2-(1-(3-nitrophenyl)ethylidene)hydrazinyl)-2-oxoethyl 4-(1H-pyrrol-1-yl)benzoate]	1.6 (≈ 3.94 µM)	34	132	249 ± 0.9 (≈ 613 µM)	1.6 (≈ 3.94 µM)	6.25 (≈ 15.4 µM)			
O=C(OCC(=O)n1[nH]c(=O)c2c(Cl)c(Cl)c(Cl)c(Cl)c2c1=O)c1ccc(-n2cccc2)cc1 [Compound 4b, 2-oxo-2-(5,6,7,8-tetrachloro-1,4-dioxo-3,4-dihydrophthalazin-2(1H)-yl)ethyl 4-(1H-pyrrol-1-yl)benzoate]	1.6 (≈ 3.04 µM)	29	25	319 ± 0.4 (≈ 605 µM)	0.8 (≈ 1.52 µM)	6.25 (≈ 11.9 µM)	greater inhibition characteristics than trimethoprim		
CC(=NNC(=O)COC(=O)c1ccc(-n2cccc2)cc1)c1ccc(O)cc1 [Compound 5j, 2-(2-(1-(4-hydroxyphenyl)ethylidene)hydrazinyl)-2-oxoethyl 4-(1H-pyrrol-1-yl)benzoate]	1.6 (≈ 4.24 µM)	32	70	255 ± 0.3 (≈ 676 µM)	3.12 (≈ 8.27 µM)	12.5 (≈ 33.1 µM)	moderate inhibition		
CC(=NNC(=O)COC(=O)c1ccc(-n2cccc2)cc1)c1cccc(Cl)c1 [Compound 5k, 2-(2-(1-(3-chlorophenyl)ethylidene)hydrazinyl)-2-oxoethyl 4-(1H-pyrrol-1-yl)benzoate]	1.6 (≈ 4.04 µM)	32	69	229 ± 0.4 (≈ 579 µM)	3.12 (≈ 7.88 µM)	12.5 (≈ 31.6 µM)	moderate inhibition		
O=C(OCC(=O)n1[nH]c(=O)c2c(Br)c(Br)c(Br)c(Br)c2c1=O)c1ccc(-n2cccc2)cc1 [Compound 4c, 2-oxo-2-(5,6,7,8-tetrabromo-1,4-dioxo-3,4-dihydrophthalazin-2(1H)-yl)ethyl 4-(1H-pyrrol-1-yl)benzoate]	1.6 (≈ 2.27 µM)	51	21	287 ± 0.7 (≈ 407 µM)	0.8 (≈ 1.13 µM)	6.25 (≈ 8.87 µM)	greater inhibition characteristics than trimethoprim		
Cc1cc(=O)n(C(=O)COC(=O)c2ccc(-n3cccc3)cc2)[nH]c1=O [Compound 4f, 2-(4-methyl-3,6-dioxo-2,3-dihydropyridazin-1(6H)-yl)-2-oxoethyl 4-(1H-pyrrol-1-yl)benzoate]	1.6 (≈ 4.53 µM)	23	35	258 ± 0.1 (≈ 730 µM)	0.8 (≈ 2.26 µM)	3.12 (≈ 8.83 µM)	greater inhibition characteristics than trimethoprim		
C/C(=N\NC(=O)COC(=O)c1ccc(-n2cccc2)cc1)c1ccc(Br)cc1 [Compound 5b, 2-(2-(1-(4-bromophenyl)ethylidene) hydrazineyl)-2-oxoethyl-4-(1H-pyrrol-1-yl) benzoate]	0.8 (≈ 1.82 µM)	22	23	266 ± 0.3 (≈ 604 µM)	0.4 to 0.8 (≈ 0.908 to 1.82 µM)	1.6 (≈ 3.63 µM)	greater inhibition characteristics than trimethoprim	0.8	0.4
